Entries after “also recorded” stand apart in the source; their conditions may differ.
Columns and labels:
CD36 gene expression = assay: Suppression effect of taxifolin on CD36 gene expression in the liver tissue of high-fat diet-induced model mice (real-time PCR); type: in vivo, mouse; conditions: C57BL/6J male mice, corrected by GAPDH
From the text: In Test Example 1, the taxifolin's action on the CD36 gene expression in the liver tissue was studied using the high-fat diet-induced model mice.
The C57BL/6J male mice (7 weeks old: CLEA Japan, Inc.) were acclimated for one week with a normal solid diet (MF: Oriental Yeast Co., Ltd.) and with freely available drinking water.
The 8 weeks old mice after the acclimation were divided into 4 groups with 5 mice each, namely, the group of those raised with a normal solid diet for 12 weeks until 20 weeks old (hereinafter, “ND Group”), the group raised with a high fat diet (HFD-60 (506 kcal/100 g; 60% fat content in terms of energy rate): Oriental Yeast Co., Ltd.) (hereinafter, “HFD Group”), the group raised with the high fat diet containing 1% by weight of taxifolin (hereinafter, “HFD+1% TX-administered Group”), and the group raised with the high fat diet containing 3% by weight of taxifolin (hereinafter, “HFD+3% TX-administered Group”).
The mice raised until 20 weeks old were anesthetized with ether, and after they were euthanized by cervical dislocation, the liver of each individual was removed. […]
The mRNA expression amount of CD36 was corrected by the expression amount of glyceraldehyde-3-phosphate dehydrogenase (GAPDH), and this was comparatively quantified using the ΔΔCt method. […]

HepG2 cell = assay: Taxifolin's suppressing action on fatty acid capturing in HepG2 cells (Oil Red O lipid droplet staining); type: cell-based, human; conditions: 24 hours; for capturing amount of palmitic acid by the HepG2 cells: 400 μm palmitic acid, vs Group B without taxifolin
Method: In Test example 2, the taxifolin's action on fatty acid capturing was studied by using the HepG2 cell, which is the cell strain derived from human hepatocarcinoma.
The HepG2 cells were inoculated with the density of 0.2×10^6 cells/well on the plate having 24 wells, and they were cultured using the 10% FBS-containing DMEM medium until the HepG2 cells covered 70 to 80% of the surface in the culture vessel. The HepG2 cells cultured in the culture medium were washed with the phosphate buffer (PBS), then cultured for 24 hours in the serum-free medium containing 400 μm of palmitic acid, taxifolin with various concentrations, and 1% BSA, with n=6 in each Group A to E, as described in Table 2.
The glucose concentration contained in the culture medium and in the serum-free medium were made 0%, 0.1% (low glucose), or 0.45% (high glucose).
The HepG2 cells that had been cultured in the serum-free medium for 24 hours were immobilized by 4% paraformaldehyde after washing with PBS. The resulting immobilized HepG2 cells were treated with 60% isopropanol, and then the lipid drops in the cells were stained using Oil Red O (Wako Pure Chemical Industries, Ltd.). Thereafter, it was washed with 60% isopropanol and then with PBS. The resulting washed HepG2 cells were treated with 100% isopropanol to elute the Oil Red O out. The resulting eluted Oil Red O was recovered in the plate with 96 wells, and then the absorbance (550 nm) was measured using the microplate reader (Multiscan SkyHigh; Thermo Fisher Scientific, Inc.).
The statistical analysis was conducted using Student t-test.
In FIG. 2, the capturing amount of the fatty acid is expressed by the average value of each group±standard error.
FIG. 2 indicates the capturing amount of the fatty acid in the HepG2 cells in each Group. The capturing amount in the HepG2 cells in each Group A to E is expressed by the percentage relative to Group A.

MC4R deficient mouse = assay: Prophylactic effect of taxifolin on hepatocarcinoma in MC4R deficient mouse loaded with a high fat diet; type: in vivo; conditions: high fat diet containing 3% of taxifolin from 20 to 50 weeks old, vs reference group
From the text: In Test Example 3, the taxifolin's action on the hepatocarcinoma by using the melanocortin-4 receptor deficient mouse (hereinafter, “MC4R deficient mouse”) loaded with a high fat diet. On the basis of the description in JP 2020-065454 A and JP 2017-006022 A, the MC4R deficient mouse provided by Joel K. Elmquist at the Medical Center in Texas University was used (Cell, 2005; 123(3): 493-505). The genetic background of the MC4R deficient mouse is the C57BL/6J mouse. These mice were kept under the controlled condition of temperature, humidity, and lighting time (12 hours cycle of dark and bright), unless otherwise specifically noted. After weaning (4 weeks after the birth), they were raised with a high fat diet (D12492 (524 kcal/100 g; 60% fat content in terms of energy rate); Research Diets, Inc.) and with freely available drinking water. All the MC4R mice loaded with the high fat diet had the NASH-like symptom by 20 weeks old; it has been known that they develop hepatocarcinoma thereafter (Am. J. Pathol., 2011; 179(5):2454-2463). The MC4R deficient 20 weeks old mice loaded with the high fat diet were divided into two groups; the reference group (n=13) that is continued to be fed with the same high fat diet until 50 weeks old, and the taxifolin-administered group (n=12) that is fed with the high fat diet containing 3% of taxifolin. The mice raised until 50 weeks old were euthanized by deep anesthesia using three mixed anesthetic agents, and then, the liver of each individual was removed. The number of the precancerous symptoms (Foci) in the removed liver, the number of the tumors having the precancerous symptom clustered, and the size of the tumor were measured. The statistical analysis was conducted using Student t-test. In FIG. 3, the number of the precancerous symptoms, the number of the tumors having the precancerous symptom clustered, and the size of the tumor are expressed by the average value of each group±standard error.

## O=C1c2c(O)cc(O)cc2O[C@H](c2ccc(O)c(O)c2)[C@H]1O [taxifolin]
CD36 gene expression; high fat diet containing 1% by weight of taxifolin for 12 weeks (HFD+1% TX-administered Group) vs HFD Group
  mRNA expression amount of CD36 in the liver tissue: significantly decreased
CD36 gene expression; high fat diet containing 3% by weight of taxifolin for 12 weeks (HFD+3% TX-administered Group) vs HFD Group
  mRNA expression amount of CD36 in the liver tissue: significantly decreased; also recorded: suppressed to the same level as the ND Group
HepG2 cell; HepG2 cells, palmitic acid, lowest concentration tested
  concentration at which taxifolin suppressed the fatty acid capturing in the liver cells: 0.1 nM
HepG2 cell; high glucose (0.45%), taxifolin 0.1 nM to 1 μM
  capturing amount of palmitic acid by the HepG2 cells: same tendency
HepG2 cell; low glucose (0.1%), taxifolin 0.1 nM or more
  capturing amount of palmitic acid by the HepG2 cells: significantly decreased
MC4R deficient mouse
  number of the precancerous symptoms (Foci) in the liver: decreased drastically
  number of the tumors having the precancerous symptom clustered: decreased drastically
  size of the tumor between 1 and 5 mm: decreased significantly
